Assay results: US9833497B2, “Human originated EGF domain proteins and use of the same” (CHENGDU SOURCEBIO LIMITED-LIABILITY COMPANY, priority 2013, dated 2017)

Assays:
Assay type in all cases: cell-based
[1] = test system: E. coli BL21; assay: MIC against Gram-negative bacteria: E. coli BL21; settings: 5×10^5 CFU/mL
Summary of the method: (§1)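 Inocula prepared by growing LB cultures at 37° C to 0.5 McFarland, centrifuging at 4000×g, and resuspending in fresh medium. Final density 5×10^5 CFU/mL per well with two-fold dilutions of purified EGF domain protein; shaking incubation at 37° C.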

[2] = test system: Klebsiella pneumonia; assay: MIC against Gram-negative bacteria: Klebsiella pneumonia; settings: 5×10^5 CFU/mL
Summary of the method: as §1

[3] = test system: Serratia marcescens; assay: MIC against Gram-negative bacteria: Serratia marcescens; settings: 5×10^5 CFU/mL
Summary of the method: as §1

[4] = test system: Proteus mirabilis; assay: MIC against Gram-negative bacteria: Proteus mirabilis; settings: 5×10^5 CFU/mL
Summary of the method: as §1

[5] = test system: Citrobacter diversus; assay: MIC against Gram-negative bacteria: Citrobacter diversus; settings: 5×10^5 CFU/mL
Summary of the method: as §1

[6] = test system: Pseudomonas aeruginosa; assay: MIC against Gram-negative bacteria: Pseudomonas aeruginosa; settings: 5×10^5 CFU/mL
Summary of the method: as §1

[7] = test system: E. coli DH5α; assay: Antibacterial activity: MIC and growth curve against E. coli DH5α in 96-well plate; settings: minimal inhibitory concentration against E. coli DH5α; 96-well plate, 5×10^5 CFU/mL, 37° C., judged after 8 h
Summary of the method: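 Log-phase bacteria (OD600 ~0.5) resuspended in LB at 5×10^5 CFU/mL, exposed to recombinant protein at 50, 25, 12.5 μg/mL final in triplicate, 37 °C shaking at 175 rpm. OD600 read every 30 min; MIC is lowest concentration showing no growth.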

[8] = test system: Enterobacter cloacae; assay: MIC against Gram-negative bacteria: Enterobacter cloacae; settings: 5×10^5 CFU/mL
Summary of the method: as §1

[9] = test system: Proteus vulgaris; assay: MIC against Gram-negative bacteria: Proteus vulgaris; settings: 5×10^5 CFU/mL
Summary of the method: as §1

[10] = test system: Moraxella catarrhalis; assay: MIC against Gram-negative bacteria: Moraxella catarrhalis; settings: 5×10^5 CFU/mL
Summary of the method: as §1

[11] = test system: Aeromonas hydrophila; assay: MIC against Gram-negative bacteria: Aeromonas hydrophila; settings: 5×10^5 CFU/mL
Summary of the method: as §1

[12] = 10 h cultivation at 37° C., two-fold serial dilution

Substance: PRT1163 (SVNSCAVNPCLHNGECVADNTSRGYHCRCPPSWQGDDCS; listed as Homo sapiens)
- MIC E. coli BL21 [1, 12]: 25 µg/mL
- MIC K. pneumonia [2, 12]: 25 µg/mL
- MIC S. marcescens [3, 12]: 25 µg/mL
- MIC P. mirabilis [4, 12]: 12.5 µg/mL
- MIC C. diversus [5, 12]: 12.5 µg/mL
- MIC P. aeruginosa [6, 12]: 12.5 µg/mL
- MIC [7]: 12.5 µg/mL
- MIC E. cloacae [8, 12]: 12.5 µg/mL
- MIC P. vulgaris [9, 12]: 12.5 µg/mL
- MIC M. catarrhalis [10, 12]: 12.5 µg/mL
- MIC A. hydrophila [11, 12]: 12.5 µg/mL

Substance: PRT1158 (IQTSCESFPLRNNATCKKCEKDYPCSCISGFTEKNCE; listed as Homo sapiens)
- MIC E. coli BL21 [1, 12]: 12.5 µg/mL
- MIC K. pneumonia [2, 12]: 50 µg/mL
- MIC S. marcescens [3, 12]: 25 µg/mL
- MIC P. mirabilis [4, 12]: 12.5 µg/mL
- MIC C. diversus [5, 12]: 12.5 µg/mL
- MIC P. aeruginosa [6, 12]: 25 µg/mL
- MIC [7]: 25 µg/mL
- MIC E. cloacae [8, 12]: 12.5 µg/mL
- MIC P. vulgaris [9, 12]: 50 µg/mL
- MIC M. catarrhalis [10, 12]: 50 µg/mL
- MIC A. hydrophila [11, 12]: 50 µg/mL

Substance: PRT1151 (QFASCENNPCGNGATCVPKSGTDIVCLCPYGRSGPLCT; listed as Homo sapiens)
- MIC E. coli BL21 [1, 12]: 12.5 µg/mL
- MIC K. pneumonia [2, 12]: 50 µg/mL
- MIC S. marcescens [3, 12]: 12.5 µg/mL
- MIC P. mirabilis [4, 12]: 50 µg/mL
- MIC C. diversus [5, 12]: 12.5 µg/mL
- MIC P. aeruginosa [6, 12]: 25 µg/mL
- MIC [7]: 25 µg/mL
- MIC E. cloacae [8, 12]: 25 µg/mL
- MIC P. vulgaris [9, 12]: 12.5 µg/mL
- MIC M. catarrhalis [10, 12]: 25 µg/mL
- MIC A. hydrophila [11, 12]: 25 µg/mL

Substance: PRT460 (DRDECSGGPSPCSHACLNAPGRFSCTCPTGFALAWDDRNCR; listed as Homo sapiens)
- MIC against E. coli BL21 ([1]; 96-well plate, 37° C., 10 h): 25 µg/mL
- MIC against K. pneumonia ([2]; 96-well plate, 37° C., 10 h): 25 µg/mL
- MIC against S. marcescens ([3]; 96-well plate, 37° C., 10 h): 12.5 µg/mL
- MIC against P. mirabilis ([4]; 96-well plate, 37° C., 10 h): 12.5 µg/mL
- MIC against C. diversus ([5]; 96-well plate, 37° C., 10 h): 50 µg/mL
- MIC against P. aeruginosa ([6]; 96-well plate, 37° C., 10 h): 12.5 µg/mL
- MIC [7]: 50 µg/mL
- MIC against E. cloacae ([8]; 96-well plate, 37° C., 10 h): 50 µg/mL
- MIC against P. vulgaris ([9]; 96-well plate, 37° C., 10 h): 50 µg/mL
- MIC against M. catarrhalis ([10]; 96-well plate, 37° C., 10 h): 25 µg/mL
- MIC against A. hydrophila ([11]; 96-well plate, 37° C., 10 h): 12.5 µg/mL

Substance: PRT644 (DINECQLQGVCPNGECLNTMGSYRCTCKIGFGPDPTFS; listed as Homo sapiens)
- MIC E. coli BL21 ([1]; 96-well plate, 37° C., 10 h): 12.5 µg/mL
- MIC K. pneumonia ([2]; 96-well plate, 37° C., 10 h): 50 µg/mL
- MIC S. marcescens ([3]; 96-well plate, 37° C., 10 h): 25 µg/mL
- MIC P. mirabilis ([4]; 96-well plate, 37° C., 10 h): 25 µg/mL
- MIC C. diversus ([5]; 96-well plate, 37° C., 10 h): 25 µg/mL
- MIC P. aeruginosa ([6]; 96-well plate, 37° C., 10 h): 25 µg/mL
- MIC [7]: 25 µg/mL
- MIC E. cloacae ([8]; 96-well plate, 37° C., 10 h): 25 µg/mL
- MIC P. vulgaris ([9]; 96-well plate, 37° C., 10 h): 100 µg/mL
- MIC M. catarrhalis ([10]; 96-well plate, 37° C., 10 h): 50 µg/mL
- MIC A. hydrophila ([11]; 96-well plate, 37° C., 10 h): 12.5 µg/mL

Substance: PRT725 (VPNLCKQICSHLCLLRPGGYSCACPQGSSFIEGSTTECD; listed as Homo sapiens)
- MIC E. coli BL21 ([1]; 96-well plate, 37° C., 10 h): 12.5 µg/mL
- MIC K. pneumonia ([2]; 96-well plate, 37° C., 10 h): 50 µg/mL
- MIC S. marcescens ([3]; 96-well plate, 37° C., 10 h): 25 µg/mL
- MIC P. mirabilis ([4]; 96-well plate, 37° C., 10 h): 12.5 µg/mL
- MIC C. diversus ([5]; 96-well plate, 37° C., 10 h): 50 µg/mL
- MIC P. aeruginosa ([6]; 96-well plate, 37° C., 10 h): 25 µg/mL
- MIC [7]: 25 µg/mL
- MIC E. cloacae ([8]; 96-well plate, 37° C., 10 h): 12.5 µg/mL
- MIC P. vulgaris ([9]; 96-well plate, 37° C., 10 h): 50 µg/mL
- MIC M. catarrhalis ([10]; 96-well plate, 37° C., 10 h): 25 µg/mL
- MIC A. hydrophila ([11]; 96-well plate, 37° C., 10 h): 25 µg/mL

Substance: PRT1325 (TEDNCNGTCHTSANCLTNSDGTASCKCAAGFQGNGTICT; listed as Homo sapiens)
- MIC against E. coli BL21 ([1]; E. coli BL21, 96-well plate, 37° C., 10 h): 12.5 µg/mL
- MIC against K. pneumonia ([2]; Klebsiella pneumonia, 96-well plate, 37° C., 10 h): 12.5 µg/mL
- MIC against S. marcescens ([3]; Serratia marcescens, 96-well plate, 37° C., 10 h): 25 µg/mL
- MIC against P. mirabilis ([4]; Proteus mirabilis, 96-well plate, 37° C., 10 h): 25 µg/mL
- MIC against C. diversus ([5]; Citrobacter diversus, 96-well plate, 37° C., 10 h): 12.5 µg/mL
- MIC against P. aeruginosa ([6]; Pseudomonas aeruginosa, 96-well plate, 37° C., 10 h): 25 µg/mL
- MIC [7]: 12.5 µg/mL
- MIC against E. cloacae ([8]; Enterobacter cloacae, 96-well plate, 37° C., 10 h): 25 µg/mL
- MIC against P. vulgaris ([9]; Proteus vulgaris, 96-well plate, 37° C., 10 h): 12.5 µg/mL
- MIC against M. catarrhalis ([10]; Moraxella catarrhalis, 96-well plate, 37° C., 10 h): 12.5 µg/mL
- MIC against A. hydrophila ([11]; Aeromonas hydrophila, 96-well plate, 37° C., 10 h): 25 µg/mL
